# Laboratory results reported in patent US9687467B2, “Diagnosis and treatment of taxane-resistant cancers” (Children's Medical Center Corporation, priority 2011, dated 2017).
# Columns and labels:
# MES-SA cells = experiment: MTT cell viability assay, paclitaxel response; type: cell-based, human; conditions: after transfection with miR-135a mimic, 100 nM paclitaxel
# Procedure: (§1) The paclitaxel-resistant cell lines MES-SA^DX5 and A549^TR were transfected with a scrambled non-targeting miRNA (control) and an miR-135a mimic (mimic), respectively. Cells were subsequently treated with 100 nM paclitaxel and cell viability was assessed using the MTT assay (FIGS. 2A, 2B). The percentage of apoptotic cells was assessed by Annexin V-staining and FACS analysis (FIGS. 2C, 2D). Values are presented as percent cell survival in paclitaxel-treated cells relative to untreated cells. *P<0.05, **P<0.001 as determined by Wilcoxon's rank sum test.
# FIGS. 4A-4E are a series of micrographs and line graphs showing that miR-135a-mediated APC suppression contributes to paclitaxel resistance. MES-SA and A549 cells were mock-transfected (mock), transfected with a scrambled siRNA (siControl) or with siRNA directed against APC (siAPC). […] Transfected A549 (FIG. 4B) and MES-SA (FIG. 4C) cells were treated with paclitaxel and viability was assessed using the MTT assay. […] (FIG. 4E) Both A549-shCON and -shAPC cells were treated with paclitaxel and cell viability was measured using the MTT assay. […]
# (§2) Cell growth inhibition was determined by a 3-(4,5-dimethylthiazol-2-yl)-2,5-diphenyltetrazolium (MTT) bromide assay. […] Absorbance was determined using a 96-well SpectraMax plate reader (Molecular Devices, Sunnyvale, Calif.) at 560 nm and 650 nm (background). […]
# A549 cells = experiment: Annexin V staining and FACS analysis of paclitaxel-induced apoptosis; type: cell-based, human; conditions: transfection with miR-135a mimic, 100 nM paclitaxel; P<0.001
# Procedure: as §1
# Annexin V/7-amino-actinomycin D labeling was performed according to the manufacturer's instructions (BD Pharmingen™, San Diego, Calif., USA, 559 763) and samples were analyzed by flow cytometry. Briefly, cells were treated for 48-72 h with either vehicle or 100 nM paclitaxel. Cells were trypsinized and washed with phosphate-buffered saline before resuspending in assay binding buffer. Annexin V and 7-amino-actinomycin labeling was performed at room temperature for 15 min before analysis by flow cytometry (BD FACScan™, San Jose, Calif., USA).
# APC 3′-UTR = experiment: Luciferase reporter fused to APC 3'-UTR; type: cell-based, human; conditions: 30 nM miR-135a mimic
# Source text: FIGS. 3A-3E are a series of bar graphs showing that miR-135a modulates APC expression in paclitaxel-resistant cancer cells. MES-SA (FIG. 3A) or A549 (FIG. 3B) cells were transfected with a luciferase reporter construct fused to APC 3′-UTR or a control luciferase reporter vector with a random 3′-UTR (random UTR). Subsequently, cells were cotransfected with either an miR-135a mimic or a non-targeting miRNA control (control miRNA). Values are shown as the percent of luciferase expression compared with the control. *P<0.01 as determined by Wilcoxon's rank sum test. FIG. 3C: Endogenous APC mRNA expression was quantified by RT-PCR analysis in A549, A549^TR, MES-SA and MES-SA^DX5 cells. Bars represent mean and s.e.m. from duplicate experiments. NS: not significant, **P<0.001 as determined by Wilcoxon's rank sum test. In addition, APC protein expression was examined by western blotting (bottom panel). […]
# Double-stranded RNA oligos representing a mature sequence that mimics endogenous miR-135a, anti-miR-135a designed to inhibit endogenous miR-135a, and anti-miR negative control were all obtained from Ambion™ and were transfected into cell lines at ˜50% confluence at 30 nM concentration with siLentFect (Bio-Rad™). […] The next day, luciferase activity was measured using the Dual-Glo® Luciferase assay system (Promega™, Madison, Wis.). […]
# T824.1 cell line = experiment: MTT cell viability assay on in vivo established paclitaxel-sensitive cell line; type: cell-based; conditions: paclitaxel-sensitive cells transfected with miR-135a mimic
# Procedure: (FIG. 7A). The parental A549 cells, a cell line that became refractory during in vivo treatment with paclitaxel (T20.2 round 1) and the same cell line established after yet another round of in vivo paclitaxel treatment (T20.2 reinjection) were treated with paclitaxel and cell viability was assessed using the MTT assay. Represented are average LC50±s.e.m. determined by MTT assay for parental A549 cells (white boxes), **P<0.001, *P<0.05 as determined by Wilcoxon's rank sum test for T20.2 round 1 cells (hatched boxes) and for T20.2 re-injection cells (filled boxes). (FIG. 7B) The expression of miR-135a was examined in these cells by qRT-PCR. *P<0.05 as determined by Wilcoxon's rank sum test. (FIG. 7C) The expression of miR-135a was examined in the cell lines established in vivo. The correlation between paclitaxel response and miR-135a expression was calculated using the Spearman's rank test. […] Subsequently, cells were treated with the indicated concentrations of paclitaxel and cell viability was assessed using the MTT assay. […]
# as §2
substance,measurement,setting,value
"miR-135a mimic: double-stranded RNA oligos representing a mature sequence that mimics endogenous miR-135a, from Ambion (sense GTATTGGGCGCCTGGTCACC; antisense CGGGAAGATGGTGATGG; listed as DNA, chemistry not given here)",cell survival,MES-SA cells,43.6%
same,paclitaxel-induced apoptosis (annexin-positive cells),A549 cells,decreased paclitaxel-induced apoptosis
same,targeting of APC 3' untranslated region (luciferase expression),APC 3′-UTR; A549 cells,targeted the 3′ untranslated region of APC
same,targeting of APC 3' untranslated region (luciferase expression),"APC 3′-UTR; MES-SA cells, P=0.029",targeted the 3′ untranslated region of APC
same,paclitaxel-induced cytotoxicity,T824.1 cell line,suppressed paclitaxel-induced cytotoxicity
